According to patent US10954240B2, “Compounds inhibiting leucine-rich repeat kinase enzyme activity” (Merck Sharp & Dohme Corp., priority 2014, dated 2021):

How the values were obtained:
[1] = Rat pharmacokinetics, oral AUC; format: in vivo; conditions: single oral dose 10 mpk, plasma; for AUC: 10 mg/kg
Source text: Representative Example of a Pharmacokinetic Measurement
The pharmacokinetics of a compound of the invention (amorphous free form) can be studied following single intravenous and/or oral administration to mouse, rat, dog and/or monkey. In the present study, the pharmacokinetics of selected compounds of the invention (amorphous free form) were studied following single intravenous and/or oral administration to rat. The IV solution formulations contained 30% captisol/70% water or 1/1 DMSO/PEG-400. The PO solution formulations contained 10% tween/90% PEG-400 or 40% PEG-400/25% of a aqueous HPBCD solution (20%)/35% water. All IV formulations were given as solutions and all PO doses were given as well-behaved suspensions or solutions. Animals were fasted prior to oral dosing in single-dose studies. Oral bioavailability was estimated using non-cross-over study designs (n=2 or 3). Plasma samples were assayed using protein precipitation with acetonitrile/methanol (90/10, v/v) followed by HPLC/MS/MS analysis employing positive-ion Turbo IonSpray ionization. Plasma concentration-time data were analyzed by non-compartmental methods and expressed as AUC (area under the curve) values. Holding dose constant, higher oral AUC values represent greater oral plasma exposure.
The tables above provide oral AUC values for example 1, 8, 12, 17, and 20, in which the compound was dosed in rats at 10 mpk via a method similar to that described above.

[2] = target: LRRK2 (G2019S mutation, GST-LRRK2 (amino acids 970-2527)) (Homo sapiens (Human), UniProt Q5S007, G2019S); test: LRRK2 Km ATP LanthaScreen Assay; format: biochemical; conditions: mean IC50 of several test results
Source text: Unless otherwise noted, all LRRK2 IC50 data presented in tables refers to the LRRK2 Km ATP LanthaScreen™ Assay that is described in the Biological Assay section.
The data presented for the Km ATP LanthaScreen™ Assay represents mean IC50 values based on several test results and may have reasonable deviations depending on the specific conditions and reagents used. Reagents for the LRRK2 Km ATP LanthaScreen™ Assay were purchased from Life Technologies Corporation.
LRRK2 Km ATP LanthaScreen™ Assay
a) 400 nl of a 1:2.15 serial dilution of test compound (98 μM top assay concentration) is spotted via Labcyte Echo to certain wells in a 384 well black, untreated plate. Control wells contain 400 nl of either DMSO or 400 nl of a known inhibitor in DMSO.
c) A 30 minute room temperature incubation is followed by addition of 10 μl of 800 nM fluorescein labeled LRRKtide peptide substrate and 186 μM ATP solution in 1× assay buffer to all wells.
d) After a 60 minute room temperature incubation, 20 μl of TR-FRET Dilution Buffer (Invitrogen PV3756B) containing 4 nM Tb-labeled anti-phospho LRRKtide antibody and 20 mM EDTA is added to all wells.
e) Plates are incubated at room temperature for 1 hour and read on an Envision™ multi-mode plate reader with LanthaScreen™ settings. Results are analysed using Assay Data Analyzer.

LRRK2 (G2019S mutation, GST-LRRK2 (amino acids 970-2527)), sequence (Q5S007 970-2527 G2019S): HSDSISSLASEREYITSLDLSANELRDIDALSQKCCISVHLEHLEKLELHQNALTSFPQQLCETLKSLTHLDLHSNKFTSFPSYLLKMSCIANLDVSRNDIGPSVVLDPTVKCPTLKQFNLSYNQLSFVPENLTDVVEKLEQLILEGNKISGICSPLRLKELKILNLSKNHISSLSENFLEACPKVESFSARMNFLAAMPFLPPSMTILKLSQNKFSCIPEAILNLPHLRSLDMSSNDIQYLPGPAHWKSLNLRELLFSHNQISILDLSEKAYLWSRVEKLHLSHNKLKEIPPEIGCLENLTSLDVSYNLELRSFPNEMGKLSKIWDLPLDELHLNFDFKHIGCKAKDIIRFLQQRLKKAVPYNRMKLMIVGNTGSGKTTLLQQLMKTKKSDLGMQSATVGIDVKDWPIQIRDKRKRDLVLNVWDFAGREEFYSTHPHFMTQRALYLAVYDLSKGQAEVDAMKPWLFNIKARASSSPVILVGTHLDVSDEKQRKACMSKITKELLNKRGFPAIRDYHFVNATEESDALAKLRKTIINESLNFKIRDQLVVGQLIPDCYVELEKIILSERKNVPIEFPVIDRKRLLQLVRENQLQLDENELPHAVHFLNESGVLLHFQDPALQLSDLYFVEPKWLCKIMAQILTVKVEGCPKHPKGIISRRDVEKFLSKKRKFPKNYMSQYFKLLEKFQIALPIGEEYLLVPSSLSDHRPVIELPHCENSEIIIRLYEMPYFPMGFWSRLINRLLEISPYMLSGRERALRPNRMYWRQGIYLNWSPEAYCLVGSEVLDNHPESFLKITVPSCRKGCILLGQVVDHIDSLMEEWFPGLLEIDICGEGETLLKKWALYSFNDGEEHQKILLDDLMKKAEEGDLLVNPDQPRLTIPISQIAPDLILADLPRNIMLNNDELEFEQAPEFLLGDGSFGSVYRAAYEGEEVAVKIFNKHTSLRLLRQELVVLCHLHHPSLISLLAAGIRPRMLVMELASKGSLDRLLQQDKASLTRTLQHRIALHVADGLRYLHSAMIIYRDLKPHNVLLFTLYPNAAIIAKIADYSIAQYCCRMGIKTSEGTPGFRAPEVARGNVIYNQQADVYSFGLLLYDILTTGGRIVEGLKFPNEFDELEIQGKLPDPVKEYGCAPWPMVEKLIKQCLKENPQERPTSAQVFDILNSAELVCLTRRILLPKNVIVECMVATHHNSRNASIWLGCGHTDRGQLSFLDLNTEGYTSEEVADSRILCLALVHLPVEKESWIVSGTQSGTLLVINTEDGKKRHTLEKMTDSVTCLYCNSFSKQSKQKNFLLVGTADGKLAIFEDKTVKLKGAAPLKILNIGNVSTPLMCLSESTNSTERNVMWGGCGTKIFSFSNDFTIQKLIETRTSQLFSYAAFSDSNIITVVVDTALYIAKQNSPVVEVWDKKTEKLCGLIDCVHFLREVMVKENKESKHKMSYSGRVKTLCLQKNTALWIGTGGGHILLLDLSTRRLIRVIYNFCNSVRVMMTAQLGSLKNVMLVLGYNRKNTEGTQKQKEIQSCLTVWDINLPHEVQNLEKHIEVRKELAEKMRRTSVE

SMILES | AUC [1] [µM·h] | Rat AUC 10 mpk PO [1] [µM·h] | IC50 [2] [nM]
Cn1cc(-c2ccc3cnn(-c4ccnc(N5CCN(S(C)(=O)=O)CC5)c4)c3c2)cn1 [Example 8, 6-(1-methyl-1H-pyrazol-4-yl)-1-(2-(4-(methylsulfonyl)piperazin-1-yl)pyridin-4-yl)-1H-indazole] | 41 | 41 ± 26 | 45
COc1ccncc1-c1ccc2cnn(-c3ccnc(N4CCOCC4)c3)c2c1 [Example 17, 4-(4-(6-(4-methoxypyridin-3-yl)-1H-indazol-1-yl)pyridin-2-yl)morpholine] | 10 | 10 ± 2.5 | 43
CN(C)C(=O)CN1CCN(c2cc(-n3ncc4ccc(-c5cnn(C)c5)cc43)ccn2)CC1 [Example 20, N,N-dimethyl-2-(4-(4-(6-(1-methyl-1H-pyrazol-4-yl)-1H-indazol-1-yl)pyridin-2-yl)piperazin-1-yl)acetamide] | 1 | 1.0 ± 0.19 | 34
CN1CCN(c2cc(-n3ncc4ccc(-c5cnn(C)c5)cc43)ccn2)CC1 [Example 9, 6-(1-methyl-1H-pyrazol-4-yl)-1-(2-(4-methylpiperazin-1-yl)pyridin-4-yl)-1H-indazole] |  |  | 56
CC(C)Oc1ccc2cnn(-c3ccnc(N4CCN(C)CC4)c3)c2c1 [Example 35, 6-isopropoxy-1-(2-(4-methylpiperazin-1-yl)pyridin-4-yl)-1H-indazole] |  |  | 181
C[C@@H]1CN(c2cc(-n3ncc4ccc(-c5cnn(C)c5)cc43)ccn2)CCO1 [Example 49, (R)-2-methyl-4-(4-(6-(1-methyl-1H-pyrazol-4-yl)-1H-indazol-1-yl)pyridin-2-yl)morpholine] |  |  | 89
CC(C)Oc1ccc2cnn(-c3ccnc(N4CCO[C@@H](C)C4)c3)c2c1 [Example 28, (S)-4-(4-(6-isopropoxy-1H-indazol-1-yl)pyridin-2-yl)-2-methylmorpholine] |  |  | 612
Cn1cc(-c2ccc3cnn(-c4ccnc(N5CCN(c6ccncn6)CC5)c4)c3c2)cn1 [Example 54, 6-(1-methyl-1H-pyrazol-4-yl)-1-(2-(4-(pyrimidin-4-yl)piperazin-1-yl)pyridin-4-yl)-1H-indazole] |  |  | 97
Cn1cc(-c2ccc3cnn(-c4ccnc(N5CCOCC5)c4)c3c2)cn1 [Example 1, 4-(4-(6-(1-methyl-1H-pyrazol-4-yl)-1H-indazol-1-yl)pyridin-2-yl)morpholine] | 2.1 | 2.1 ± 0.09 | 
Cn1cncc1-c1ccc2cnn(-c3ccnc(N4CCOCC4)c3)c2c1 [Example 6, 4-(4-(6-(1-methyl-1H-imidazol-5-yl)-1H-indazol-1-yl)pyridin-2-yl)morpholine] |  |  | 119
c1nc(N2CCOCC2)cc(-n2ncc3ccc(C4CC4)cc32)n1 [Example 71, 6-cyclopropyl-1-(6-morpholin-4-ylpyrimidin-4-yl)-1H-indazole] |  |  | 231
Cn1cc(-c2ccc3cnn(-c4ccnc(N5CC(F)(F)C5)c4)c3c2)cn1 [Example 11, 1-(2-(3,3-difluoroazetidin-1-yl)pyridin-4-yl)-6-(1-methyl-1H-pyrazol-4-yl)-1H-indazole] |  |  | 224
COC1CCCN(c2cc(-n3ncc4ccc(OC(C)C)cc43)ccn2)C1 (stereo not drawn) [Example 36, 6-isopropoxy-1-(2-(3-methoxypiperidin-1-yl)pyridin-4-yl)-1H-indazole] |  |  | 596
CCn1cc(-c2ccc3cnn(-c4ccnc(N5CCOCC5)c4)c3c2)cn1 [Example 19, 4-(4-(6-(1-ethyl-1H-pyrazol-4-yl)-1H-indazol-1-yl)pyridin-2-yl)morpholine] |  |  | 128
CC(C)Oc1ccc2cnn(-c3ccnc(N4CCO[C@H](C)C4)c3)c2c1 [Example 29, (R)-4-(4-(6-isopropoxy-1H-indazol-1-yl)pyridin-2-yl)-2-methylmorpholine] |  |  | 490
Cn1cc(-c2ccc3cnn(-c4cc(N5CCN(S(C)(=O)=O)CC5)ncn4)c3c2)cn1 [Example 63, 6-(1-methyl-1H-pyrazol-4-yl)-1-{6-[4-(methylsulfonyl)piperazin-1-yl]pyrimidin-4-yl}-1H-indazole] |  |  | 317
Cn1cc(-c2ccc3cnn(-c4ccnc(N5CC[C@@H](F)C5)c4)c3c2)cn1 [Example 12, (R)-1-(2-(3-fluoropyrrolidin-1-yl)pyridin-4-yl)-6-(1-methyl-1H-pyrazol-4-yl)-1H-indazole] | 0.82 |  | 89
Cn1cc(-c2ccc3cnn(-c4ccnc(N5CCCCC5)c4)c3c2)cn1 [Example 45, 6-(1-methyl-1H-pyrazol-4-yl)-1-(2-(pipendin-1-yl)pyridin-4-yl)-1H-indazole] |  |  | 141
CC(C)Oc1ccc2cnn(-c3ccnc(N4CCn5ccnc5C4)c3)c2c1 [Example 23, 7-(4-(6-isopropoxy-1H-indazol-1-yl)pyridin-2-yl)-5,6,7,8-tetrahydroimidazo[1,2-a]pyrazine] |  |  | 446
